Test results published in article PMC11359831, “Stepwise Structural Simplification of the Dihydroxyanthraquinone Moiety of a Multitarget Rhein-Based Anti-Alzheimer Lead to Improve Drug Metabolism and Pharmacokinetic Properties” (Pharmaceutics, 2024).
Values after ≈ are worked out from the molar mass of the structure shown. Values joined by “and” are separate entries in the source; they are usually repeats but may differ in a detail not shown here. Equal values may be shown once.

Experiments:
[1] = PAMPA-BBB
Method: (§1) The parallel artificial membrane permeability assay for the blood–brain barrier (PAMPA-BBB) [41] was used to assess the in vitro brain permeability of the new compounds. For the assay, the compounds were dissolved in mixtures of PBS and ethanol (70:30).

Aβ42 aggregation = biological target: T1, Aβ42 aggregation (Homo sapiens, UniProt P05067); assay: Aβ42 aggregation inhibition in genetically modified E. coli cells (Th-S fluorescence); format: cell-based, Escherichia coli; conditions: for inhibition at 10 µM: live E. coli cells overexpressing Aβ42, read-out: Aβ42 Aggregation % inh. @10 µM
T1 construct: expressed in transfected cells; host or cells: E. coli BL21 (DE3) bearing pET28a-Aβ42
Method: For Aβ42 overexpression, M9 minimal medium (10 mL) containing kanamycin (50 μg/mL) was added to a colony of E. coli BL21 (DE3) competent cells, bearing the pET28a plasmid (Novagen, Inc., Madison, WI, USA), which contains the DNA sequence encoding for Aβ42. After overnight culture, the volume necessary to obtain a 1:500 dilution was added to fresh M9 minimal medium that contained kanamycin (50 μg/mL) and thioflavin-S (Th-S, 250 µM).
For Aβ42 overexpression, the corresponding E. coli cell cultures were kept growing overnight (37 °C; 250 rpm) until they reached an OD600 = 0.6. These cultures (980 μL) were added to a mixture of 10 μL of a solution of the new compounds in DMSO and 10 μL of 100 mM isopropyl 1-thio-β-D-galactopyranoside (IPTG), to reach a final compound concentration of 10 μM. The same procedure was used for tau overexpression but employing 10 μL of 25% arabinose instead of IPTG. The resulting E. coli cultures were kept growing overnight (37 °C; 1400 rpm) using an Eppendorf Thermomixer (Hamburg, Germany). To prepare a negative control for the assay, showing the highest amount of the amyloidogenic protein, the same quantity of DMSO, without the compounds to be tested, was added to the sample. With the double purpose of obtaining positive controls devoid of the amyloidogenic proteins and assessing the potential intrinsic toxicity of the new compounds, we also prepared samples that had not been treated with either IPTG or arabinose (non-induced samples).
To assess the inhibitory activity of compounds 4–7 on Aβ42 and tau aggregation within E. coli cells, a fluorescence assay was employed, using Th-S ([…] stock solution, T1892, Sigma, St. Louis, MO, USA) in double-distilled water (Milli-Q system, Millipore, Bay City, MI, USA) and an Aminco Bowman Series 2 luminescence spectrophotometer (Aminco-Bowman AB2, SLM Aminco, Rochester, NY, USA), working at 25 °C in the wavelength range of 460–600 nm, with λex = 445 nm, slit widths of 4 nm, and λem = 485 nm. The results are given as the average of nine independent experiments, each performed in triplicate.

[2] = Plasma stability, mouse plasma; format: in vitro ADME; conditions: 37 °C
zebrafish embryos = assay: Fish embryo acute toxicity (FET) test in zebrafish embryos; format: in vivo; conditions: 72 h of exposure, lethality
Method: Test solutions were freshly prepared for each experiment and were renewed every 24 h. The maximum tested compound concentration was 100 µM and four additional concentrations were also prepared by applying a 1:2 dilution factor. A 1% DMSO solution was used as a vehicle control.
Six-well plates were incubated at 26 ± 1 °C under a 14:10 light:dark cycle for 72 h. To assess the potential lethality of the new compounds, we followed, every 24 h, the four parameters that are outlined in the OECD Guideline No. 236: embryo coagulation, lack of somite formation, non-detachment of the tail, and absence of a heartbeat (from 48 h onward). The percentage of lethality at each concentration that was tested for the new compounds was recorded and expressed as mean ± SEM from three or more independent experiments. […] LOAEC values were determined through an ANOVA test with Bonferroni’s post-hoc test for multiple comparisons (significance threshold: p < 0.05).

[3] = Plasma stability, rat plasma; format: in vitro ADME; conditions: 37 °C
[4] = Plasma stability, rat plasma; format: in vitro ADME; conditions: 37 °C; for remaining at 1 h, 5 μM / remaining at 6 h, 5 μM: rat, plasma; for remaining at 1 h, 5 μM: read-out: Plasma Stability % Remaining Compound, rat, 1 h; for remaining at 6 h, 5 μM: read-out: Plasma Stability % Remaining Compound, rat, 6 h
Method: The plasma stability of the new compounds was tested using in human, mouse, and rat plasma (Seralab). One hundred μL of 5 μM solutions of the new compounds in plasma were plated and incubated at 37 °C for 0, 60, 120, and 360 min, and then treated with 300 μL of acetonitrile and centrifuged (4000× g; 60 min; 4 °C). Sample quantification was performed by UPLC/MS/MS analysis of the resulting supernatant using a UPLC QSM Waters Acquity apparatus, equipped with a Waters ACQUITY BEH C18 1.7 μm 2.1 × 50 mm column, eluting with 0.1% formic acid in water or in acetonitrile, with a flow of 0.6 mL/min. The gradient indicated in Table 1 was used in this assay.
Compound concentration was calculated from the MS peak areas and expressed as the percentage of remaining compound at the different tested times.

[5] = Plasma stability, human plasma; format: in vitro ADME; conditions: 37 °C; for remaining at 1 h, 5 μM: read-out: Plasma Stability % Remaining Compound, human, 1 h; for remaining at 6 h, 5 μM: read-out: Plasma Stability % Remaining Compound, human, 6 h
in vitro = conditions: PAMPA, PAMPA-BBB
Method: as §1

[6] = biological target: T2, human recombinant BACE-1 (hBACE-1) (Homo sapiens, UniProt P56817); design: method as in PMID 24568372; conditions: cited from earlier work
T2 construct: purchased Invitrogen, Carlsbad, CA, USA

[7] = biological target: T3, human recombinant AChE (hAChE) (Homo sapiens, UniProt P22303); assay: biochemical; conditions: for AChE vs. BChE selectivity: hBChE IC50 relative to hAChE IC50; for IC50: human recombinant AChE, Ellman method, mean ± standard error
T3 construct: purchased Sigma (Milan, Italy)
Method: The stock and assay solutions were prepared as follows:
Stock hAChE solution: solution of the lyophilized powder in 0.1% Triton X-100/0.1 M potassium phosphate (pH 8.0).
Stock solutions of the new compounds: 1 mM solutions in methanol, with further dilutions in this solvent to the desired concentrations.

[8] = Brain permeability class, Table 4
[9] = Brain Permeability Pe, mean ± SD

T1 sequence (P05067 672-713): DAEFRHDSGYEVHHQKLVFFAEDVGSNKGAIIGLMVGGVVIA
T3 sequence (P22303 32-614): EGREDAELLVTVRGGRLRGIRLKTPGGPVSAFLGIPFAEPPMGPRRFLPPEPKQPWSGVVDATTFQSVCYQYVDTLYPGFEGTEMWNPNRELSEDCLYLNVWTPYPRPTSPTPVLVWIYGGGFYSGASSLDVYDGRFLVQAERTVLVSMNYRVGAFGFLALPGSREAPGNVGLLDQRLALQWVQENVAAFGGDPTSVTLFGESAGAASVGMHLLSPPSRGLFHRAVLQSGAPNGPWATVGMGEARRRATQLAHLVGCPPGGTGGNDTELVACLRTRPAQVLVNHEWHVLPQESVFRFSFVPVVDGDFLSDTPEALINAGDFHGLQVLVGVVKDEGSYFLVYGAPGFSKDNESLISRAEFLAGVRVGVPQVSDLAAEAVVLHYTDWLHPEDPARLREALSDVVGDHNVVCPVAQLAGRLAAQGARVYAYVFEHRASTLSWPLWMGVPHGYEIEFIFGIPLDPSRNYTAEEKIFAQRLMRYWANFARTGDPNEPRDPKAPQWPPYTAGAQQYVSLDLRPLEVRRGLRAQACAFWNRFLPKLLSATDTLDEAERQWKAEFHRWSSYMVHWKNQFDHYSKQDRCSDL
T2 sequence (P56817 46-501): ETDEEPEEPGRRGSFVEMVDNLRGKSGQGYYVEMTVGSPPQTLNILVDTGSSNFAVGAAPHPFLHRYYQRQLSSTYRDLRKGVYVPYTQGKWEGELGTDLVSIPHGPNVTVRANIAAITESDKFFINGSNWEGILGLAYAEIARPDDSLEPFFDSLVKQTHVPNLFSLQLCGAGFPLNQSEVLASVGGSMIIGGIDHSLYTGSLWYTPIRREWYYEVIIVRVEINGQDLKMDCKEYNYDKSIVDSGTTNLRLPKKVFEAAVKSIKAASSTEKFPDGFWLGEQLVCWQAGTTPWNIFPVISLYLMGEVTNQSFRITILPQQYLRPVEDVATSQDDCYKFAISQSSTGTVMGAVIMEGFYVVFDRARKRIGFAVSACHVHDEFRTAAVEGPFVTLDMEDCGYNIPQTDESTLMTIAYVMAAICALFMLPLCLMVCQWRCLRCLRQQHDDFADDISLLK

SMILES	BBB permeation class ([1]; CNS+ threshold Pe over 5.21 × 10^−6 cm/s)	Brain Permeability Pe ([1]; mean ± SD)	inhibition at 10 µM (Aβ42 aggregation) [%]	% hydrolyzed in mouse plasma after 6 h [2] [%]	LOAEC (zebrafish embryos) [µM]	% hydrolyzed in rat plasma after 6 h [3] [%]	remaining at 1 h, 5 μM [4] [%]	remaining at 6 h, 5 μM ([4]; 6 h) [%]	remaining at 1 h, 5 μM [5] [%]	% hydrolyzed in human plasma after 6 h ([5]; 6 h) [%]	Papp (in vitro; [8]) [×10⁻⁶ cm/s]	BACE-1 inhibition (in words) [6]	AChE vs. BChE selectivity [7]	IC50 [7]	remaining at 6 h, 5 μM ([5]; 6 h) [%]	Papp (in vitro; [9]) [×10⁻⁶ cm/s]	Aβ42 Aggregation % inh. @10 µM (Aβ42 aggregation; live E. coli cells overexpressing Aβ42) [%]	Plasma Stability % Remaining Compound, rat, 6 h ([4]; 6 h, 5 μM) [%]	Solubility (kinetic solubility, 37 °C, 2 h, PBS with 1% DMSO, nephelometry) [µM]	increased aqueous solubility relative to the initial lead (relative to lead 3) [fold]
CC1=CC2Cc3nc4cc(Cl)ccc4c(NCCCCCCCCCNC(=O)c4cc(O)c5c(c4)C(=O)c4cccc(O)c4C5=O)c3C(C1)C2 (stereo not shown) [Compound 3]	CNS+ (high BBB permeation (CNS+), with Pe (10^−6 cm/s) > 5.21)	21.5 ± 0.7 10^−6 cm s^−1	74.2 ± 1.6	7.1	100	32.1	98	67.9	100	15.6	> 5.2	found to inhibit BACE-1	–	–	–	–	–	–	–	–
CC1=CC2Cc3nc4cc(Cl)ccc4c(NCCCCCCCCCNC(=O)c4ccc5c(c4)C(=O)c4ccccc4C5=O)c3C(C1)C2 (stereo not shown) [Compound 4, N-{9-[(3-Chloro-6,7,10,11-tetrahydro-9-methyl-7,11-methanocycloocta[b]quinolin-12-yl)amino]nonyl}anthraquinone-2-carboxamide]	–	–	73.3 ± 3.6	–	–	–	100	77.2	94.2	–	> 5.2	–	181	6.91 ± 0.77 nM	97.6	9.2 ± 1.2	–	–	–	–
CC1=CC2Cc3nc4cc(Cl)ccc4c(NCCCCCCCCCNC(=O)c4ccc5c(c4)C(=O)c4ccccc4-5)c3C(C1)C2 (stereo not shown) [Compound 5, N-{9-[(3-Chloro-6,7,10,11-tetrahydro-9-methyl-7,11-methanocycloocta[b]quinolin-12-yl)amino]nonyl}-9-fluorenone-2-carboxamide]	–	–	69.8 ± 1.2	–	–	–	93.6	84.7	88.5	–	> 5.2	–	149	5.93 ± 0.26 nM	80.4	6.2 ± 0.8	–	–	–	–
CC1=CC2Cc3nc4cc(Cl)ccc4c(NCCCCCCCCCNC(=O)c4cccc(C(=O)c5ccccc5)c4)c3C(C1)C2 (stereo not shown) [Compound 6, 3-Benzoyl-N-{9-[(3-chloro-6,7,10,11-tetrahydro-9-methyl-7,11-methanocycloocta[b]quinolin-12-yl)amino]nonyl}benzamide]	–	–	72.6 ± 2.7	–	50	–	96	92.4	100	–	> 5.2	–	–	11.6 ± 0.9 nM	90.8	7.4 ± 0.3	–	–	–	–
CC(=O)c1cccc(C(=O)NCCCCCCCCCNc2c3c(nc4cc(Cl)ccc24)CC2C=C(C)CC3C2)c1 (stereo not shown) [Compound 7, 3-Acetyl-N-{9-[(3-chloro-6,7,10,11-tetrahydro-9-methyl-7,11-methanocycloocta[b]quinolin-12-yl)amino]nonyl}benzamide]	–	–	73	–	–	14.2	98.9	86	100	–	> 5.2	–	–	6 nM and 5.97 nM	100	16.5 ± 1.1	73.1 ± 4.8	85.8	18.1 (≈ 10.4 µg/mL)	2
